In patent publication US11912723B2, “KRAS modulators and uses thereof” (Quanta Therapeutics, Inc., priority 2022, dated 2024) one finds IC50 data, which are given here for 15 compounds.

T1 sequence (P01116 2-169 isoform P01116-2 G12D): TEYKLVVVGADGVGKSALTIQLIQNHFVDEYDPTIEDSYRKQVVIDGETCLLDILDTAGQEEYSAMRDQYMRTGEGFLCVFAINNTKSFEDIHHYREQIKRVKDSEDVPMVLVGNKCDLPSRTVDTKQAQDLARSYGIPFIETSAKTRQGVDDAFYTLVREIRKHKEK

The test has as its target T1, GST-tagged KRAS G12D (2-169) (Homo sapiens, UniProt P01116, G12D).
T1 construct: GST-tagged KRAS^G12D (2-169, Reaction Biology, MSC-11-539); purchased Reaction Biology MSC-11-539 (KRAS G12D); MSC-11-502 (SOS1cat)
The experiment in a line: Nucleotide exchange assay (NEA), HTRF of SOS-mediated GTP-DY-647P1 binding. The test is classed as biochemical. The following applies: 5 nM GST-KRAS G12D, 20 nM SOScat, 150 nM GTP; compound 1 h at RT. The source says:
This activity is tightly regulated by GTPase activating proteins (GAPs) and guanine nucleotide exchange factors (GEFs). GEFs, such as SOS1/2, activate Ras proteins by exchanging GDP for GTP, thus returning Ras to its active conformation (Simanshu, Nissley, & McCormick, 2017). […] Homogenous time resolved fluorescence (HTRF) was used to detect SOS-mediated binding of a fluorescent GTP analog, GTP-DY-647P1 (Jena Biosciences NU-820-647P1) to GST-tagged KRAS^G12D (2-169, Reaction Biology, MSC-11-539).
GST-tagged KRAS^G12D (2-169) and anti-GST MAb Tb Cryptate Gold (CisBio 61GSTTLB) were diluted into assay buffer (20 mM HEPES, pH 7.3, 150 mM NaCl, 5 mM MgCl2, 0.05% BSA 0.0025% NP40, 1 mM DTT) to prepare a 2.5× donor solution. 5× compound was added to the protein mixture and incubated for 1 h at RT. 2.5× acceptor solution containing SOS1cat (564-1049, Reaction Biology MSC-11-502) and GTP-DY-647P1 were then added to the donor KRAS mixture such that the final concentration of the reaction contained 5 nM GST-tagged KRAS^G12D (2-169), 20 nM SOScat, and 150 nM GTP. The reaction was monitored using at RT with the Envision multimode plate reader (Ex/Em 337/665, […]) up to 90 minutes at 5 minute intervals. Data was blanked to reactions without SOS1 and % inhibition was calculated such that DMSO only=0% and blank=100%. Curve fitting was done using a 4 parameter fit. NEA KRAS G12D ID50 (uM) values of selected compounds are depicted in Table 2 with compounds having a value<0.01 uM as ++++; >0.01 uM to 0.1 uM as +++; >0.1 uM to 1 uM as ++; >1 uM to 20 uM as +; and >20 uM as NA.
`O=C1CCCN(c2nc(OCC34CCCN3CC(F)C4)nc3c2COC2(CCc4c(Cl)cccc42)C3)CC1` (mixture of isomers) [Compound 21, 1-[4′-chloro-2-[[rac-(2R,8S)-2-fluoro-1,2,3,5,6,7-hexahydropyrrolizin-8-yl]methoxy]spiro[5,8-dihydropyrano[4,3-d]pyrimidine-7,1′-indane]-4-yl]azepan-4-one] returned an IC50 of 1000 to 20000 nM. The value for `N#Cc1c(N)sc2c1C1(CCC2)Cc2nc(OC[C@@]34CCCN3C[C@H](F)C4)nc(N3CCCCCC3)c2CO1` (mixture of isomers) [Compound 26, 2′-amino-4-(azepan-1-yl)-2-[[rac-(2R,8S)-2-fluoro-1,2,3,5,6,7-hexahydropyrrolizin-8-yl]methoxy]spiro[5,8-dihydropyrano[4,3-d]pyrimidine-7,4′-6,7-dihydro-5H-benzothiophene]-3′-carbonitrile] was 1000 to 20000 nM. The value for `C[C@@]1(O)CCCN(c2nc(OC[C@@]34CCCN3C[C@H](F)C4)nc3c2COC2(CCc4c(Cl)cccc42)C3)C1` (single isomer, unassigned) [Compound 23B, (3R)-1-[(7*)-4′-chloro-2-[[(2R,8S)-2-fluoro-1,2,3,5,6,7-hexahydropyrrolizin-8-yl]methoxy]spiro[5,8-dihydropyrano[4,3-d]pyrimidine-7,1′-indane]-4-yl]-3-methyl-piperidin-3-ol] was 1000 to 20000 nM. The value for `O=C1NC(=O)[C@]2(CCCN(c3nc(OC[C@@]45CCCN4C[C@H](F)C5)nc4c3COC3(CCCc5c(Cl)cc(O)cc53)C4)C2)N1` (single isomer, unassigned) [Compound 51A, (5R)-9-[(7*)-5′-chloro-2-[[(2R,8S)-2-fluoro-1,2,3,5,6,7-hexahydropyrrolizin-8-yl]methoxy]-7′-hydroxy-spiro[5,8-dihydropyrano[4,3-d]pyrimidine-7,1′-tetralin]-4-yl]-1,3,9-triazaspiro[4.5]decane-2,4-dione] was 1000 to 20000 nM; that for `OC1CCCN(c2nc(OC[C@@]34CCCN3C[C@H](F)C4)nc3c2COC2(CCCc4ccc(F)cc42)C3)CC1` (stereo partly drawn) [Compound 11, 1-[7′-fluoro-2-[[(2R,8S)-2-fluoro-1,2,3,5,6,7-hexahydropyrrolizin-8-yl]methoxy]spiro[5,8-dihydropyrano[4,3-d]pyrimidine-7,1′-tetralin]-4-yl]azepan-4-ol] was 1000 to 20000 nM; that for `F[C@H]1CN2CCC[C@@]2(COc2nc3c(c(N4CCCCCC4)n2)COC2(CCCc4ccccc42)C3)C1` (stereo partly drawn) [Compound 12, 4-(azepan-1-yl)-2-[[(2R,8S)-2-fluoro-1,2,3,5,6,7-hexahydropyrrolizin-8-yl]methoxy]spiro[5,8-dihydropyrano[4,3-d]pyrimidine-7,1′-tetralin]] was 1000 to 20000 nM. Compound `O[C@@H]1CCN(c2nc(OC[C@@]34CCCN3C[C@H](F)C4)nc3c2COC2(CCc4c(Cl)cccc42)C3)CC[C@@H]1O` (stereo partly drawn) [Compound 22, syn-1-[4′-chloro-2-[[(2R,8S)-2-fluoro-1,2,3,5,6,7-hexahydropyrrolizin-8-yl]methoxy]spiro[5,8-dihydropyrano[4,3-d]pyrimidine-7,1′-indane]-4-yl]azepane-4,5-diol] came in with an IC50 of 1000 to 20000 nM. The value for `N#CN[C@@H]1CCCCN(c2nc(OC[C@@]34CCCN3C[C@H](F)C4)nc3c2CO[C@@]2(CCc4c(Cl)cccc42)C3)C1` [Compound 44, [(3R)-1-[(7S)-4′-chloro-2-[[(2R)-2-fluoro-1,2,3,5,6,7-hexahydropyrrolizin-8-yl]methoxy]spiro[5,8-dihydropyrano[4,3-d]pyrimidine-7,1′-indane]-4-yl]azepan-3-yl]cyanamide] was 1000 to 20000 nM; that for `C[C@@]1(NC#N)CCCN(c2nc(OC[C@@]34CCCN3C[C@H](F)C4)nc3c2COC2(CCc4c(Cl)cccc42)C3)C1` (stereo partly drawn) [Compound 46B, [(3R)-1-[(7*)-4′-chloro-2-[[(2R,8S)-2-fluoro-1,2,3,5,6,7-hexahydropyrrolizin-8-yl]methoxy]spiro[5,8-dihydropyrano[4,3-d]pyrimidine-7,1′-indane]-4-yl]-3-methyl-3-piperidyl]cyanamide; 2,2,2-trifluoroacetic acid] was 1000 to 20000 nM. For `O=C(c1nn2c(c1Cl)CN(c1nc(OC[C@@]34CCCN3C[C@H](F)C4)nc3c1CO[C@@]1(CCc4c(Cl)cccc41)C3)CCC2)N1CCS(=O)(=O)CC1` [Compound 56, [3-chloro-5-[(7R)-4′-chloro-2-[[(2R,8S)-2-fluoro-1,2,3,5,6,7-hexahydropyrrolizin-8-yl]methoxy]spiro[5,8-dihydropyrano[4,3-d]pyrimidine-7,1′-indane]-4-yl]-4,6,7,8-tetrahydropyrazolo[1,5-a][1,4]diazepin-2-yl]-(1,1-dioxo-1,4-thiazinan-4-yl)methanone], the IC50 fell in the range of 10 to 100 nM. Take `CN1Cc2c(nc(OC[C@@]34CCCN3C[C@H](F)C4)nc2N2CCC[C@]3(C2)NC(=O)NC3=O)C[C@]12CCc1c(Cl)cccc12` [Compound 58, (5R)-9-[(7S)-4′-chloro-2-[[(2R,8S)-2-fluoro-1,2,3,5,6,7-hexahydropyrrolizin-8-yl]methoxy]-6-methyl-spiro[5,8-dihydropyrido[4,3-d]pyrimidine-7,1′-indane]-4-yl]-1,3,9-triazaspiro[4.5]decane-2,4-dione]: the IC50 lay in the range of 10 to 100 nM. The result for `CN(C)C(=O)c1nn2c(c1Cl)CN(c1nc(OC[C@@]34CCCN3C[C@H](F)C4)nc3c1COC1(CCc4ccc(C(F)F)cc41)C3)CCC2` (stereo partly drawn) [Compound 75, 3-chloro-5-[6′-(difluoromethyl)-2-[[(2R,8S)-2-fluoro-1,2,3,5,6,7-hexahydropyrrolizin-8-yl]methoxy]spiro[5,8-dihydropyrano[4,3-d]pyrimidine-7,1′-indane]-4-yl]-N,N-dimethyl-4,6,7,8-tetrahydropyrazolo[1,5-a][1,4]diazepine-2-carboxamide] reads 100 to 1000 nM; that for `CN(C)C(=O)c1nn2c(c1Cl)CN(c1nc(OC[C@@]34CCCN3C[C@H](F)C4)nc3c1CN(CC#N)[C@@]1(CCc4cccc(F)c41)C3)CCC2` [Compound 101, 3-chloro-5-[(7S)-6-(cyanomethyl)-7′-fluoro-2-[[(2R,8S)-2-fluoro-1,2,3,5,6,7-hexahydropyrrolizin-8-yl]methoxy]spiro[5,8-dihydropyrido[4,3-d]pyrimidine-7,1′-indane]-4-yl]-N,N-dimethyl-4,6,7,8-tetrahydropyrazolo[1,5-a][1,4]diazepine-2-carboxamide], 100 to 1000 nM; that for `CN(C)C(=O)c1nn2c(c1Cl)CN(c1nc(OC[C@@]34CCCN3C[C@H](F)C4)nc3c1CN(CC#N)[C@@]1(CCCc4ccccc41)C3)CCC2` [Compound 102, 3-chloro-5-[(7S)-6-(cyanomethyl)-2-[[(2R,8S)-2-fluoro-1,2,3,5,6,7-hexahydropyrrolizin-8-yl]methoxy]spiro[5,8-dihydropyrido[4,3-d]pyrimidine-7,1′-tetralin]-4-yl]-N,N-dimethyl-4,6,7,8-tetrahydropyrazolo[1,5-a][1,4]diazepine-2-carboxamide], 10 to 100 nM. `CCN1Cc2c(nc(OC[C@@]34CCCN3C[C@H](F)C4)nc2N2CCCn3nc(C(=O)N(C)C)c(Cl)c3C2)C[C@]12CCc1cccc(F)c12` [Compound 103, 3-chloro-5-[(7S)-6-ethyl-7′-fluoro-2-[[(2R,8S)-2-fluoro-1,2,3,5,6,7-hexahydropyrrolizin-8-yl]methoxy]spiro[5,8-dihydropyrido[4,3-d]pyrimidine-7,1′-indane]-4-yl]-N,N-dimethyl-4,6,7,8-tetrahydropyrazolo[1,5-a][1,4]diazepine-2-carboxamide] returned an IC50 of 10 to 100 nM.
